According to PubChem BioAssay (NCI):
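Where inhibition never reached the appropriate level, the endpoint shown equals the highest concentration tested. Otherwise, values were interpolated linearly from a five-concentration, 48-hour dose response in 96-well plates. At the GI50, growth is halved. TGI marks complete inhibition of growth.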

How the values were obtained:
Test in all cases: growth of human tumour cells (NCI), 48 h
HS 578T breast = system: HS 578T breast
MDA-MB-435 = system: MDA-MB-435
OVCAR-5 ovarian = system: OVCAR-5 ovarian
RPMI-8226 leukemia = system: RPMI-8226 leukemia
OVCAR-8 ovarian = system: OVCAR-8 ovarian
M14 melanoma = system: M14 melanoma
HOP-62 NSCLC = system: HOP-62 NSCLC
NCI/ADR-RES ovarian = system: NCI/ADR-RES ovarian
NCI-H226 lung = system: NCI-H226 lung
KM12 colon = system: KM12 colon
786-0 renal = system: 786-0 renal
SN12C renal = system: SN12C renal
SR leukemia = system: SR leukemia
HT29 colon = system: HT29 colon
HOP-92 NSCLC = system: HOP-92 NSCLC
A549 NSCLC = system: A549 NSCLC
SNB-19 CNS = system: SNB-19 CNS
EKVX NSCLC = system: EKVX NSCLC
BT-549 breast = system: BT-549 breast
IGROV1 ovarian = system: IGROV1 ovarian
HCT-116 colon = system: HCT-116 colon
MOLT-4 leukemia = system: MOLT-4 leukemia
CAKI-1 renal = system: CAKI-1 renal
T-47D breast = system: T-47D breast
MCF7 breast = system: MCF7 breast
CCRF-CEM leukemia = system: CCRF-CEM leukemia
SK-MEL-28 melanoma = system: SK-MEL-28 melanoma
SNB-75 CNS = system: SNB-75 CNS
NCI-H23 lung = system: NCI-H23 lung
NCI-H522 lung = system: NCI-H522 lung
NCI-H460 lung = system: NCI-H460 lung
HCT-15 colon = system: HCT-15 colon
PC-3 prostate = system: PC-3 prostate
DU-145 prostate = system: DU-145 prostate
OVCAR-4 ovarian = system: OVCAR-4 ovarian
UACC-62 melanoma = system: UACC-62 melanoma
SK-OV-3 ovarian = system: SK-OV-3 ovarian
OVCAR-3 ovarian = system: OVCAR-3 ovarian
LOX IMVI melanoma = system: LOX IMVI melanoma
UACC-257 melanoma = system: UACC-257 melanoma
SF-539 CNS = system: SF-539 CNS
U251 CNS = system: U251 CNS
SW-620 colon = system: SW-620 colon
COLO 205 colon = system: COLO 205 colon
UO-31 renal = system: UO-31 renal
MALME-3M melanoma = system: MALME-3M melanoma
ACHN renal = system: ACHN renal
SF-268 CNS = system: SF-268 CNS
MDA-MB-231 breast = system: MDA-MB-231 breast
SF-295 CNS = system: SF-295 CNS
SK-MEL-5 melanoma = system: SK-MEL-5 melanoma
A498 renal = system: A498 renal
TK-10 renal = system: TK-10 renal
HCC-2998 colon = system: HCC-2998 colon
RXF 393 renal = system: RXF 393 renal
SK-MEL-2 melanoma = system: SK-MEL-2 melanoma
K-562 leukemia = system: K-562 leukemia
HL-60(TB) leukemia = system: HL-60(TB) leukemia

SMILES: C/C(=N/NC(=O)c1ccncc1)c1ccc(NC(=O)C(=O)Nn2c(=S)[nH]c3ccccc3c2=O)cc1
- TGI (HS 578T breast): > 100 µM
- TGI (MDA-MB-435): > 100 µM
- TGI (OVCAR-5 ovarian): > 100 µM
- TGI (RPMI-8226 leukemia): > 100 µM
- TGI (OVCAR-8 ovarian): > 100 µM
- TGI (M14 melanoma): > 100 µM
- TGI (HOP-62 NSCLC): > 100 µM
- TGI (NCI/ADR-RES ovarian): > 100 µM
- TGI (NCI-H226 lung): > 100 µM
- TGI (KM12 colon): > 100 µM
- TGI (786-0 renal): > 100 µM
- TGI (SN12C renal): > 100 µM
- TGI (SR leukemia): > 100 µM
- TGI (HT29 colon): > 100 µM
- TGI (HOP-92 NSCLC): > 100 µM
- TGI (A549 NSCLC): > 100 µM
- TGI (SNB-19 CNS): > 100 µM
- TGI (EKVX NSCLC): > 100 µM
- TGI (BT-549 breast): > 100 µM
- TGI (IGROV1 ovarian): > 100 µM
- TGI (HCT-116 colon): > 100 µM
- TGI (MOLT-4 leukemia): > 100 µM
- TGI (CAKI-1 renal): > 100 µM
- TGI (T-47D breast): > 100 µM
- TGI (MCF7 breast): > 100 µM
- TGI (CCRF-CEM leukemia): > 100 µM
- TGI (SK-MEL-28 melanoma): > 100 µM
- TGI (SNB-75 CNS): > 100 µM
- TGI (NCI-H23 lung): > 100 µM
- TGI (NCI-H522 lung): > 100 µM
- TGI (NCI-H460 lung): > 100 µM
- TGI (HCT-15 colon): > 100 µM
- TGI (PC-3 prostate): > 100 µM
- TGI (DU-145 prostate): > 100 µM
- TGI (OVCAR-4 ovarian): > 100 µM
- TGI (UACC-62 melanoma): > 100 µM
- TGI (SK-OV-3 ovarian): > 100 µM
- TGI (OVCAR-3 ovarian): > 100 µM
- TGI (LOX IMVI melanoma): > 100 µM
- TGI (UACC-257 melanoma): > 100 µM
- TGI (SF-539 CNS): > 100 µM
- TGI (U251 CNS): > 100 µM
- TGI (SW-620 colon): > 100 µM
- TGI (COLO 205 colon): > 100 µM
- TGI (UO-31 renal): > 100 µM
- TGI (MALME-3M melanoma): > 100 µM
- TGI (ACHN renal): > 100 µM
- TGI (SF-268 CNS): > 100 µM
- TGI (MDA-MB-231 breast): > 100 µM
- TGI (SF-295 CNS): > 100 µM
- TGI (SK-MEL-5 melanoma): > 100 µM
- TGI (A498 renal): > 100 µM
- TGI (TK-10 renal): > 100 µM
- TGI (HCC-2998 colon): > 100 µM
- TGI (RXF 393 renal): > 100 µM
- TGI (SK-MEL-2 melanoma): > 100 µM

SMILES: Cc1c(C)c2c(c(C)c1NC(=O)/C=C\C(=O)O)CCC(C)(CCCC(C)CCCC(C)CCCC(C)C)O2 (configuration not stated)
- GI50 (HS 578T breast): 1.89 µM
- TGI (HS 578T breast): 4.97 µM
- GI50 (MDA-MB-435): 1.67 µM
- TGI (MDA-MB-435): 3.44 µM
- GI50 (OVCAR-5 ovarian): 1.72 µM
- TGI (OVCAR-5 ovarian): 4.05 µM
- GI50 (RPMI-8226 leukemia): 2.17 µM
- TGI (RPMI-8226 leukemia): 13.8 µM
- GI50 (OVCAR-8 ovarian): 2.29 µM
- TGI (OVCAR-8 ovarian): 7.62 µM
- GI50 (M14 melanoma): 1.37 µM
- TGI (M14 melanoma): 2.75 µM
- GI50 (HOP-62 NSCLC): 1.64 µM
- TGI (HOP-62 NSCLC): 3.08 µM
- GI50 (NCI/ADR-RES ovarian): 2.54 µM
- TGI (NCI/ADR-RES ovarian): 7.46 µM
- GI50 (NCI-H226 lung): 1.96 µM
- TGI (NCI-H226 lung): 4.38 µM
- GI50 (KM12 colon): 1.67 µM
- TGI (KM12 colon): 3.17 µM
- GI50 (786-0 renal): 1.69 µM
- TGI (786-0 renal): 3.06 µM
- GI50 (SN12C renal): 1.73 µM
- TGI (SN12C renal): 3.3 µM
- GI50 (SR leukemia): 1.61 µM
- TGI (SR leukemia): 4.63 µM
- GI50 (HT29 colon): 2.61 µM
- TGI (HT29 colon): 8.24 µM
- GI50 (HOP-92 NSCLC): 1.1 µM
- TGI (HOP-92 NSCLC): 2.35 µM
- GI50 (A549 NSCLC): 1.79 µM
- TGI (A549 NSCLC): 3.62 µM
- GI50 (SNB-19 CNS): 1.94 µM
- TGI (SNB-19 CNS): 3.47 µM
- GI50 (EKVX NSCLC): 1.57 µM
- TGI (EKVX NSCLC): 3.37 µM
- GI50 (BT-549 breast): 1.35 µM
- TGI (BT-549 breast): 2.69 µM
- GI50 (IGROV1 ovarian): 1.94 µM
- TGI (IGROV1 ovarian): 4.88 µM
- GI50 (HCT-116 colon): 1.28 µM
- TGI (HCT-116 colon): 2.54 µM
- GI50 (MOLT-4 leukemia): 2.06 µM
- TGI (MOLT-4 leukemia): 7.19 µM
- GI50 (CAKI-1 renal): 1.49 µM
- TGI (CAKI-1 renal): 3.12 µM
- GI50 (T-47D breast): 2.02 µM
- TGI (T-47D breast): 4.78 µM
- GI50 (MCF7 breast): 2.2 µM
- TGI (MCF7 breast): 5.32 µM
- GI50 (CCRF-CEM leukemia): 1.79 µM
- TGI (CCRF-CEM leukemia): 6.11 µM
- GI50 (SK-MEL-28 melanoma): 1.79 µM
- TGI (SK-MEL-28 melanoma): 3.28 µM
- GI50 (SNB-75 CNS): 1.31 µM
- TGI (SNB-75 CNS): 2.58 µM
- GI50 (NCI-H23 lung): 2.1 µM
- TGI (NCI-H23 lung): 4.52 µM
- GI50 (NCI-H522 lung): 2.23 µM
- TGI (NCI-H522 lung): 4.94 µM
- GI50 (NCI-H460 lung): 1.45 µM
- TGI (NCI-H460 lung): 2.96 µM
- GI50 (HCT-15 colon): 1.83 µM
- TGI (HCT-15 colon): 4.65 µM
- GI50 (PC-3 prostate): 1.38 µM
- TGI (PC-3 prostate): 2.91 µM
- GI50 (DU-145 prostate): 1.69 µM
- TGI (DU-145 prostate): 3.05 µM
- GI50 (OVCAR-4 ovarian): 2.52 µM
- TGI (OVCAR-4 ovarian): 5.16 µM
- GI50 (UACC-62 melanoma): 1.8 µM
- TGI (UACC-62 melanoma): 3.22 µM
- GI50 (SK-OV-3 ovarian): 1.73 µM
- TGI (SK-OV-3 ovarian): 3.25 µM
- GI50 (OVCAR-3 ovarian): 1.61 µM
- TGI (OVCAR-3 ovarian): 2.97 µM
- GI50 (K-562 leukemia): 2.3 µM
- TGI (K-562 leukemia): 7.16 µM
- GI50 (LOX IMVI melanoma): 1.87 µM
- TGI (LOX IMVI melanoma): 3.69 µM
- GI50 (UACC-257 melanoma): 1.72 µM
- TGI (UACC-257 melanoma): 3.83 µM
- GI50 (SF-539 CNS): 1.68 µM
- TGI (SF-539 CNS): 3.11 µM
- GI50 (U251 CNS): 1.64 µM
- TGI (U251 CNS): 3.18 µM
- GI50 (SW-620 colon): 1.66 µM
- TGI (SW-620 colon): 3.25 µM
- GI50 (COLO 205 colon): 1.75 µM
- TGI (COLO 205 colon): 3.54 µM
- GI50 (UO-31 renal): 1.27 µM
- TGI (UO-31 renal): 2.55 µM
- GI50 (MALME-3M melanoma): 1.7 µM
- TGI (MALME-3M melanoma): 3.16 µM
- GI50 (ACHN renal): 1.7 µM
- TGI (ACHN renal): 3.07 µM
- GI50 (SF-268 CNS): 1.67 µM
- TGI (SF-268 CNS): 3.08 µM
- GI50 (HL-60(TB) leukemia): 1.38 µM
- TGI (HL-60(TB) leukemia): 6.82 µM
- GI50 (MDA-MB-231 breast): 1.94 µM
- TGI (MDA-MB-231 breast): 3.55 µM
- GI50 (SF-295 CNS): 1.32 µM
- TGI (SF-295 CNS): 2.77 µM
- GI50 (SK-MEL-5 melanoma): 1.73 µM
- TGI (SK-MEL-5 melanoma): 3.15 µM
- GI50 (A498 renal): 1.38 µM
- TGI (A498 renal): 2.7 µM
- GI50 (TK-10 renal): 1.84 µM
- TGI (TK-10 renal): 3.39 µM
- GI50 (HCC-2998 colon): 1.91 µM
- TGI (HCC-2998 colon): 3.64 µM
- GI50 (RXF 393 renal): 1.74 µM
- TGI (RXF 393 renal): 3.23 µM
- GI50 (SK-MEL-2 melanoma): 1.86 µM
- TGI (SK-MEL-2 melanoma): 3.68 µM
